Reference: the supplement of paper PMC10307832

Columns and labels:
Test in all cases: relative viability (nuclei count vs DMSO), 5 days (fraction); higher = more cells survive
Sulindac + Linsitinib = compound: CC1=C(CC(=O)O)c2cc(F)ccc2/C1=C\c1ccc([S+](C)[O-])cc1 [Sulindac] + C[C@]1(O)C[C@@H](c2nc(-c3ccc4ccc(-c5ccccc5)nc4c3)c3c(N)nccn32)C1 [Linsitinib] (partner 1 µM)
Summary of the method: (§1)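 The day after seeding in 1536-well plates, lung cancer cell lines were treated by pin tool with a single drug, or with a fixed anchor-drug dose together with five library-drug doses (not always all listed) in √10 steps. After 5 days, a combined fix-and-stain solution (final 0.05% Triton X-100, 1% formaldehyde, 1 ug/ml Hoechst) was added. Nuclei counted on 4× images gave relative viability as treated counts over vehicle counts, reported as the median of duplicate plates.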

[1] = compound: CN[C@@H]1C[C@H]2O[C@@](C)([C@@H]1OC)n1c3ccccc3c3c4c(c5c6ccccc6n2c5c31)C(=O)NC4 [Staurosporine] + CC1(C)CCC(c2ccc(Cl)cc2)=C(CN2CCN(c3ccc(C(=O)NS(=O)(=O)c4ccc(N[C@H](CCN5CCOCC5)CSc5ccccc5)c(S(=O)(=O)C(F)(F)F)c4)cc3)CC2)C1 [Navitoclax] (partner 0.5 µM)
Summary of the method: as §1

[2] = compound: O=c1[nH]cc(F)c(=O)[nH]1 [5-Fluorouracil] + COc1cc2c(Oc3ccc(NC(=O)C4(C(=O)Nc5ccc(F)cc5)CC4)cc3F)ccnc2cc1OCCCN1CCOCC1 [Foretinib] (partner 0.25 µM)
Summary of the method: as §1

[3] = compound: O=c1[nH]cc(F)c(=O)[nH]1 [5-Fluorouracil] + Cc1nc(NC(=O)N2CCC[C@H]2C(N)=O)sc1-c1ccnc(C(C)(C)C(F)(F)F)c1 [Alpelisib] (partner 2 µM)
Summary of the method: as §1

Cell Line | relative viability (Sulindac + Linsitinib; first compound 0.08 µM) | relative viability (Sulindac + Linsitinib; first compound 0.8 µM) | relative viability (Sulindac + Linsitinib; first compound 2.53 µM) | relative viability (Sulindac + Linsitinib; first compound 8 µM) | relative viability ([1]; first compound 0.005 µM) | relative viability ([1]; first compound 0.01581 µM) | relative viability ([1]; first compound 0.05 µM) | relative viability ([1]; first compound 0.1581 µM) | relative viability ([1]; first compound 0.5 µM) | relative viability ([2]; first compound 0.02 µM) | relative viability ([2]; first compound 0.2 µM) | relative viability ([2]; first compound 0.6325 µM) | relative viability ([2]; first compound 2 µM) | relative viability ([3]; first compound 0.02 µM) | relative viability ([3]; first compound 0.2 µM) | relative viability ([3]; first compound 0.6325 µM) | relative viability ([3]; first compound 2 µM) | relative viability (Sulindac + Linsitinib; first compound 0.253 µM)
EPLC-272H | 1.04 | 0.751 | 1.17 | 1.15 | 1.34 | 0.463 | 0.409 | 0.163 | 0.19 | 0.665 | 0.446 | 0.296 | 0.163 | 0.91 | 0.834 | 0.429 | 0.371 | –
A-427 | 1.1 | 1.11 | 1.14 | 1.11 | 0.943 | 0.639 | 0.254 | 0.204 | – | 0.961 | 1.19 | 1.08 | 0.625 | 1.06 | 1.12 | 0.957 | – | 1.14
